The results in this text go back to ChEMBL document CHEMBL4346726 (Bioorg Med Chem Lett, 2019).

A short description of data set [1]: Inhibition of HCV genotype 3a NS3/4a protease by enzymatic assay. Set-up: species or system Hepatitis C virus subtype 3a.
Data set [2] can be described thus: Half life in rat. It counts as ADME. Particulars: in vivo.
A short description of data set [3]: MRT in rat. It counts as ADME. The settings on record: in vivo.
Data set [4] is described as follows: Drug metabolism in human liver microsomes assessed as hydroxylated metabolite formation. It counts as ADME, Microsome. A general note: Liver microsomes are vesicles of endoplasmic reticulum, rich in cytochrome P450 enzymes.
For a further data set, the system named is Hepatitis C virus. Kind of data set: Antiviral activity against HCV genotype 3a in RLuc cells assessed as reduction in viral replication by luciferase reporter gene assay. It counts as functional, organism-based, Hepacivirus hominis, subtype 3a. Particulars: Hepatitis C virus, subtype 3a. On the technique in general: In a reporter assay the amount or activity of a reporter protein is the signal.

Data set [5] can be described thus: Oral bioavailability in rat. Type of data set: ADME, organism-based. The settings on record: in vivo.
Data set [6] is described as follows: Drug concentration in rat liver after 6 hrs. It counts as ADME, tissue-based. The settings on record: read-out: Drug uptake.
A further data set relates to Hepacivirus hominis. Kind of data set: Binding affinity to HCV NS3/4a protease assessed as compound-protein adduct formation per mg protein using radiolabelled compound.
Data set [7] is described as follows: Lipophilicity, log D of compound. It counts as physicochemical. Particulars: octanol/water.
The nature of data set [8]: Clearance in rat. The settings on record: in vivo. Type of data set: ADME.
Data set [9] in a line: Volume of distribution at steady state in rat. It counts as ADME. Particulars: in vivo, read-out: Vdss.
Data set [10] can be described thus: Drug metabolism in human liver microsomes assessed as metabolite formation in presence of glutathione. It counts as ADME, Microsome.

As to `CC[C@@H]1[C@@H]2CN(C(=O)[C@H](C(C)(C)C)NC(=O)O[C@@H]3C[C@H]3CCCCCc3nc4ccc(OC)cc4nc3O2)[C@@H]1C(=O)N[C@]1(C(=O)NS(=O)(=O)C2(C)CC2)C[C@H]1C(F)F`, in data set [1], the Ki stood at 0.067 nM. The compound also had a half-life in data set [2] of 1.4 h. Besides, the MRT in data set [3] is 1.4 h. Moreover, the Drug metabolism result in data set [4] is listed as “Metabolite_Detected”. Besides, the EC50 in the data set on Hepatitis C virus is 23 nM. Moreover, the bioavailability in data set [5] amounted to 31%. Further, the concentration at 6 h in data set [6] came to 14 µM. Further, the PB with Hepacivirus hominis was found to be 10 pmol/mg. The compound also showed a logD in data set [7] of 3.8. In data set [8], this compound gave a clearance of 21.7 mL/min/kg. Further, in [9], the Vd amounted to 1.7 L/kg.
Turning to `CC[C@@H]1[C@@H]2CN(C(=O)[C@H](C(C)(C)C)NC(=O)O[C@@H]3C[C@H]3CCCCCc3nc4ccc(OC)cc4nc3O2)[C@@H]1C(=O)N[C@]1(C(=O)NS(=O)(=O)C2CC2)C[C@H]1C(F)F`, in data set [1], the Ki was 0.043 nM. Further, in data set [2], the half-life is 0.8 h. Besides, in the data set with Hepatitis C virus, the EC50 was 27 nM. In data set [5], this compound had a bioavailability of 36%. The concentration at 6 h in [6] was found to be 1.2 µM. Moreover, the logD in data set [7] was found to be 3.5. This compound also gave a clearance in [8] of 33.3 mL/min/kg. Further, the Vd in data set [9] is 1 L/kg.
For the compound `C=C[C@@H]1C[C@]1(NC(=O)[C@@H]1[C@H](C)[C@@H]2CN1C(=O)[C@H](C(C)(C)C)NC(=O)O[C@@H]1C[C@H]1CCCCCc1nc3ccc(OC)cc3nc1O2)C(=O)NS(=O)(=O)C1CC1`, the Drug metabolism result in [10] is recorded as “Metabolite_Detected”. Besides, in [1], the affinity corresponds to a Ki of 0.094 nM. The EC50 in the data set on Hepatitis C virus was 41 nM.

For orientation: Ki means the dissociation constant of the complex between target and ligand, obtained from inhibition or displacement. Higher therefore signals weaker binding. As usually defined, the half-life is the time in which the quantity being followed falls by half. The low end stands for fast loss, the high end for slow loss. In general, MRT refers to a mean duration of stay, worked out from the concentration-time curve. By EC50 is commonly meant the concentration that produces a half-maximal response. Usually bioavailability stands for the share of a dose that reaches the circulation, judged against a reference dose that is usually intravenous. By logD is commonly meant the decadic logarithm of the distribution of all forms, ionised or not, between an organic phase and buffer at a given pH. In general, clearance refers to the rate of elimination divided by the concentration.
